Results as given in patent US10881656B2, “HIF inhibitors and use thereof” (The General Hospital Corporation, priority 2008, dated 2021).

Tests used:
[1] = system: HIF-2a 5′-UTR Iron-Responsive Element (IRE); experiment: Luciferase reporters with HIF-2a 5′-UTR / IRE in 786-O cells; assay type: cell-based, human; details: 10 μM, normoxia and hypoxia
[2] = system: iron (Fe-(EDHB)3 complex); experiment: In vitro iron competition assay; details: 0-200 micromolars, absorbance at 500 nm
Experimental: This assay was performed similarly to that described previously (Wang et al., 2002). Briefly, displacement of iron from ethyl-3,4-dihydroxybenzoate (EDHB) complex was measured as a decrease in absorbance at 500 nm. Ferric iron, prepared as a 5 mM stock solution of FeC13 in 100 mM sodium citrate, was diluted to 25 μM in the presence of 750 μM EDHB. 1 ml aliquots of this solution were then mixed with 0, 25, 50, 100 or 200 micromolars of compounds 40, 41, 76, and 77 as well as EDTA and DFO for controls. […] The self absorbance of compound 41 in a matched solution lacking Fe-(EDHB)3 was subtracted from the A500 value obtained in the presence of the Fe-(EDHB)3 complex.
The inventors next directly tested whether the compounds bind iron by performing a competition assay in which the displacement of iron from ethyl-3,4-dihydroxybenzoate (EDHB), a weakly chelating ester, was measured as a decrease in absorbance at 500 nm. […] In addition, the inventors utilized the Connectivity Map to look for similarities between the induced gene expression signatures of low and high dose DFO and compound treated cells (Lamb et al., 2006). Using this bioinformatic approach, the inventors discovered no significant similarity between the gene expression profile of the compounds and low (chelating) DFO dose, while there was a negative correlation between compound effect and high (HIF stabilizing) DFO dose (see FIG. 13).

[3] = target: T1, IRP2 binding to Ferritin-L IRE (Homo sapiens, UniProt P48200); experiment: Electrophoretic mobility shift assay, Ferritin L IRE probe; details: 786-O lysates, EMSA
T1 construct: when expressed in endogenous levels; endogenous in cells; host or cells: 786-O
Experimental: EMSAs were performed as described previously (Fillebeen et al., 2003). Briefly, 50 μg lysate from 786-O cells treated with medium only, DMSO, or compounds were incubated with 25,000 cpm wild-type or mutant radiolabeled HIF-2a IRE probe for 20 minutes at room temperature before loading onto non-denaturing acrylamide gels. Supershifts were performed identically, save that 0.2 μg control, IRP1 or IRP2 antibodies were also added. Total protein content was estimated by Bradford Assay (BioRad, 500-0006), and even loading for all experiments was confirmed by Western blot for B-Actin.
Inventors discovered that compound 76 increased the residual amount of IRP1 bound to the HIF-2a IRE in hypoxia, although not to the same extent as that observed in normoxic cells. […] Lastly, to further investigate the involvement of IRP2 in HIF-2a IRE, the inventors compared side by side IRP2 binding to HIF-2a and Ferritin-L IRE in 786-O cells, in conditions of normoxia or hypoxia and after treatment with compound 76 or DFO (FIG. 7E). While IRP2 binding was clearly detected on Ferritin IRE, the inventors were not able to detect measurable IRP2 binding on HIF-2a IRE.

[4] = system: HIF; details: published; cited from earlier work
[5] = system: HIF-2a (HRE-luciferase, 7H4 cells); experiment: HRE-luciferase reporter assay in 786-O derived 7H4 cells; assay type: cell-based, human; details: 786-O cells, 24 hours
Experimental: The screen for small molecule inhibitors was performed in the Institute for Chemical and Cellular biology, Harvard Medical School. 7SV or 7H4 cells were plated onto 384-well plates. The next day compounds were added robotically to the medium, to a final concentration of approximately 10 μM. 24 hours later, media was aspirated and Passive Lysis Buffer (Promega) and Luciferase Assay Reagent II (Promega) were added. Luciferase activity was measured with an Analyst plate reader (LJL Biosystems). All experiments were performed in duplicate and the identity of lead compounds was confirmed by mass spectroscopy
Luciferase assays were performed using the Promega's Dual-luciferase Assay Reporter System (Promega, E1910) according to the manufacturer's instructions. Counts obtained from transient transfections were normalized for co-transfected Renilla luciferase. Stable clones were normalized to medium only treated wells.
Functionally validated HRE and control SV40 luciferase reporter constructs were stably introduced into VHL-deficient 786-O cells to generate 7H4 and 7SV lines, respectively (see FIG. 8A). These lines were used to screen five commercial small molecule libraries (NCI Diversity Set, Chembridge, Maybridge, CEREP and Peakdale) and the ICCB Diversity-Oriented Synthesis (DOS) Diversity Set 2 (DDS2) and serine-derived peptidomimetic (SDP1) collections, totaling 58,000 compounds.
786-O cells were untreated (M, for medium only), mock-treated (D, for DMSO) or treated with compounds for two days before assaying for normalized luciferase activity. The resulting dose response curves are shown along with the compound structures in FIGS. 1A-1H).
To validate the connectivity map-derived prediction that PGJ2 is involved in HIF signaling, the inventors treated HRE-luciferase expressing 786-O cells (7H4) and SV40-luciferase expressing control cells (7SV) with increasing doses of PGJ2.

[6] = system: NFkB; experiment: TransAM NFkB ELISA; assay type: cell-based, human; details: 786-O cells, 5uM, 24 hours
Experimental: Experiments were performed in triplicate. Error bars represent Standard Error of the Mean (SEM).

T1 sequence (P48200 whole entry): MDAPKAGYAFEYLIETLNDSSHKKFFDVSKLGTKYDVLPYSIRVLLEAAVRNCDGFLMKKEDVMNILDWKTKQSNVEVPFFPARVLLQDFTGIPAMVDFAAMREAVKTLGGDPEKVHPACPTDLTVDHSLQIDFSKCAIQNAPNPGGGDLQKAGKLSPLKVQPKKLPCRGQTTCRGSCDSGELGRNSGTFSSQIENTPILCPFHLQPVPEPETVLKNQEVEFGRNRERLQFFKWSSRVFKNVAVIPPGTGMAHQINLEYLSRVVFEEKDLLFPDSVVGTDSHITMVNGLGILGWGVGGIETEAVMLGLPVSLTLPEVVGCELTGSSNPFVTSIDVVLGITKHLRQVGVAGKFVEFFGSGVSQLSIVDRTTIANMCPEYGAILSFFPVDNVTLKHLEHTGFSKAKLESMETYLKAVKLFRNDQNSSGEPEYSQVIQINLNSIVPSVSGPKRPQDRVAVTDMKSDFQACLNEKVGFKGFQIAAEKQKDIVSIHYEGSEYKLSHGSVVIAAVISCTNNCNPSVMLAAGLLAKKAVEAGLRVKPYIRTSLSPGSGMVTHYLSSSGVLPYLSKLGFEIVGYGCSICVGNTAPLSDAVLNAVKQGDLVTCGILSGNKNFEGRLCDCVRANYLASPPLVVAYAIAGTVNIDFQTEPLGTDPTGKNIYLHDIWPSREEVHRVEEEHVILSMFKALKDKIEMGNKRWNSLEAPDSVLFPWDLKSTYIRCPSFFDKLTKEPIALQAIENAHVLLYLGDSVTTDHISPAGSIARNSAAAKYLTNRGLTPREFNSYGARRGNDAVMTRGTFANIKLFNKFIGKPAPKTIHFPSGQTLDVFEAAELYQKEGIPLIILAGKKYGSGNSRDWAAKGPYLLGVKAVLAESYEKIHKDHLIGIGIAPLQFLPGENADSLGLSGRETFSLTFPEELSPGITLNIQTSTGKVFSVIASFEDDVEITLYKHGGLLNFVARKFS

| SMILES | Biological Activities [4] | Mechanism of HIF inhibtion [4] | also measured |
| --- | --- | --- | --- |
| CC(=O)N(O)CCCCCNC(=O)CCC(=O)N(O)CCCCCNC(=O)CCC(=O)N(O)CCCCCN [DFO, reference compound] |  |  | HIF-2a IRE luciferase reporter activity [1]: repressed reporter activity and diminished the effect of hypoxia; displacement of iron from EDHB complex (iron chelation) [2]: readily displaced iron from EDHB; binding of IRP2 to Ferritin-L IRE [3]: slightly enhanced |
| OCc1ccc(-c2nn(Cc3ccccc3)c3ccccc23)o1 [YC-1] | VEGF decrease/tumor | HIF protein levels |  |
| O=C(O)CN(CCN(CC(=O)O)CC(=O)O)CC(=O)O [EDTA, reference compound] |  |  | displacement of iron from EDHB complex (iron chelation) [2]: readily displaced iron from EDHB |
| COc1cc([C@@H]2c3cc4c(cc3[C@@H](Nc3ccc([N+](=O)[O-])cc3)[C@H]3COC(=O)[C@H]23)OCO4)cc(OC)c1O [GL331] | Inhibits HUVEC | Protein levels |  |
| CCC(C)SSc1ncc[nH]1 (stereo not drawn) [PX-12] | Tumor suppression |  |  |
| Cc1ccc2nc(NCCN)c3ncc(C)n3c2c1 [BMS-345541, reference compound] |  |  | HRE-luciferase activity [5]: did not alter the HRE-luciferase activity; basal NFkB activity [6]: basal NFkB activity is suppressed |
| COc1cc2c(cc1O)CC[C@@H]1[C@@H]2CC[C@]2(C)[C@@H](O)CC[C@@H]12 [Compound 2-ME2] | Inhibits HUVEC | Post-transcriptional |  |
| COc1ccc2cc3[n+](cc2c1OC)CCc1cc2c(cc1-3)OCO2 [Berberine] |  | HIF degradation |  |
| CC(C)(c1ccc(O)cc1)c1ccc(O)cc1 [Bisphenol] |  | HIF degradation |  |
